This is an account of results in ChEMBL document CHEMBL3244140, “Folate antagonists. 12. Antimalarial and antibacterial effects of 2,4-diamino-6-[(aralkyl and alicyclid)thio-, sulfinyl-, and sulfonyl]quinazolines” (J Med Chem, 1978).

Data set [1] concerns Plasmodium berghei. In words: Antiplasmodial activity against drug-sensitive Plasmodium berghei infected in mouse assessed as change in mean survival time at 640 mg/kg, sc administered as single dose 72 hrs post infection. The data set is classed as functional. The conditions noted are these: route subcutaneous.
Data set [2] concerns Pseudomonas aeruginosa. In words: Antibacterial activity against Pseudomonas aeruginosa 28 by Gradient plate test. The data set is classed as functional, organism-based.
The subject of data set [3] is Staphylococcus aureus. In words: Antibacterial activity against drug-resistant Staphylococcus aureus S18713 assessed as growth inhibition by Gradient plate test. The data set is classed as functional.
The test system of data set [4] is Staphylococcus aureus. Briefly: Antibacterial activity against Staphylococcus aureus UC-76 assessed as growth inhibition by Gradient plate test. The class given is functional.
The test system of data set [5] is Escherichia coli. In words: Antibacterial activity against Escherichia coli Vogel by Gradient plate test. The data set is classed as functional, organism-based.
The test system of data set [6] is Shigella sonnei. In words: Antibacterial activity against Shigella sonnei C-10 by Gradient plate test. The class given is functional, organism-based.
For data set [7], the system named is Enterococcus faecalis. Briefly: Antibacterial activity against Streptococcus faecalis MGH2 assessed as growth inhibition by Gradient plate test. The data set is classed as functional.
Data set [8] relates to Plasmodium berghei. In words: Antiplasmodial activity against drug-sensitive Plasmodium berghei infected in mouse assessed as change in mean survival time at 40 mg/kg, sc administered as single dose 72 hrs post infection. Particulars: route subcutaneous. The class given is functional.
For data set [9], the system named is Plasmodium berghei. In words: Antiplasmodial activity against drug-sensitive Plasmodium berghei infected in mouse assessed as change in mean survival time at 160 mg/kg, sc administered as single dose 72 hrs post infection. The conditions noted are these: route subcutaneous. The class given is functional.
For data set [10], the system named is Plasmodium berghei. In words: Antiplasmodial activity against drug-sensitive Plasmodium berghei infected in mouse assessed as change in mean survival time at 20 mg/kg, sc administered as single dose 72 hrs post infection. The data set is classed as functional. The conditions noted are these: route subcutaneous.
The test system of data set [11] is Plasmodium berghei. In words: Antiplasmodial activity against drug-sensitive Plasmodium berghei infected in mouse assessed as change in mean survival time at 80 mg/kg, sc administered as single dose 72 hrs post infection. The data set is classed as functional. Particulars: route subcutaneous.
The subject of data set [12] is Plasmodium berghei. Briefly: Antiplasmodial activity against drug-sensitive Plasmodium berghei infected in mouse assessed as cure from infection at 640 mg/kg, sc administered as single dose 72 hrs post infection measured 60 days postinfection. The class given is functional, organism-based. Details: dose 640 mg/kg.
Data set [13] concerns Plasmodium berghei. In words: Antiplasmodial activity against drug-sensitive Plasmodium berghei infected in mouse assessed as change in mean survival time at 320 mg/kg, sc administered as single dose 72 hrs post infection measured 60 days postinfection. The data set is classed as functional. Particulars: route subcutaneous.
The test system of data set [14] is Mus musculus. Briefly: Toxicity in drug-sensitive Plasmodium berghei infected mouse at 640 mg/kg, sc administered as single dose 72 hrs post infection […]. The conditions noted are these: in vivo. The class given is organism-based. Details: dose 640 mg/kg, route subcutaneous.
The test system of data set [15] is Mus musculus. Briefly: Toxicity in drug-sensitive Plasmodium berghei infected mouse at 320 mg/kg, sc administered as single dose 72 hrs post infection measured 2 to 5 days postinfection. The class given is organism-based. Details: dose 320 mg/kg, route subcutaneous. Particulars: in vivo.
Data set [16] has as its system Plasmodium berghei. In words: Antiplasmodial activity against drug-sensitive Plasmodium berghei infected in mouse assessed as cure from infection at 160 mg/kg, sc administered as single dose 72 hrs post infection measured 60 days postinfection. Details: dose 160 mg/kg. The data set is classed as functional, organism-based.
In data set [17] the test system is Plasmodium berghei. Briefly: Antiplasmodial activity against drug-sensitive Plasmodium berghei infected in mouse assessed as cure from infection at 320 mg/kg, sc administered as single dose 72 hrs post infection measured 60 days postinfection. The class given is functional, organism-based. Details: dose 320 mg/kg.

In brackets after ≈: the same amount, converted by molar mass. Activity calls are given as the source filed them. The rule behind the calls is not given here.

The term MIC denotes the lowest concentration found to suppress growth.

Take `Nc1nc(N)c2c(Cl)c([S+]([O-])Cc3ccc(Cl)cc3)ccc2n1` (stereo unspecified): the MSD in data set [1] came out at 0.3 days; in data set [8], 0.1 days; in data set [9], 0.3 days. Further, the result in [2], in data set [5] and in data set [6] was inactive. Moreover, the MIC in data set [3] was greater than 25 mg/L; in data set [4], greater than 25 mg/L; in data set [7] it was less than 0.25 mg/L.

As to `CC(Sc1ccc2nc(N)nc(N)c2c1)c1ccc(Cl)cc1` (stereo unspecified), the outcome in data set [2], in data set [5] and in [6] was inactive. Moreover, the MSD in [10] is 3.7 days; in data set [11], 9.6 days; in data set [13], 17 days; in data set [8], 5.7 days; in [9], 10.9 days. In addition, the minimal inhibitory concentration (MIC) was 1 mg/L (≈ 3.02 µM) in data set [3], less than 0.25 mg/L in [4] and less than 0.25 mg/L in [7]. Also, the result in data set [12] was Active.

On to `Nc1nc(N)c2cc(SCc3ccccc3)ccc2n1`, for which the MSD in data set [1] was 10.7 days; in data set [10] it was 0.5 days; in data set [11], 0.9 days; in [13], 4.9 days; in [8], 0.5 days; in [9], 1.1 days.

In the case of `CC1(C)N=C(N)N=C(N)N1c1ccc(Cl)cc1.Cl` [CHLORCYCLOGUANIL HYDROCHLORIDE], the Activity entry in data set [14] and in data set [15] was “Toxic” in each case. In addition, the MSD turned out to be 7.9 days in [10], 21.6 days in data set [11] and 13.4 days in data set [8]. In addition, the result in [16] was Active.

For the compound `Nc1nc(N)c2cc(SCc3ccc(Cl)cc3)ccc2n1`, the MSD in [1] was determined as 17.3 days; in data set [10] it was 0.4 days; in data set [11], 2.6 days; in data set [13], 9.8 days; in [8], 0.8 days; in data set [9], 4.2 days. Besides, the outcome in data set [2], in [5] and in data set [6] was inactive. The MIC in data set [3], in [4] and in data set [7] was less than 0.25 mg/L throughout.

For `COc1cc(Cc2cnc(N)nc2N)cc(OC)c1OC` [TRIMETHOPRIM], the result in data set [2], in [5] and in [6] was inactive. The minimum inhibitory concentration (MIC) in [3], in [4] and in [7] was less than 0.25 mg/L in each case.

Regarding `Nc1nc(N)c2cc(SC34CC5CC(CC(C5)C3)C4)ccc2n1`, the MSD came to 10.7 days in [1]; 0.1 days in data set [10]; 0.3 days in data set [11]; 1.1 days in [13]; 0.3 days in data set [8]; 0.3 days in data set [9]. Further, the result in data set [2], in [5] and in data set [6] was inactive. The MIC in data set [3], in data set [4] and in data set [7] was less than 0.25 mg/L each time.

Regarding `Nc1nc(N)c2c(Cl)c(SCc3ccc(Cl)cc3)ccc2n1`, the MSD in [1] came out at 7.9 days; in data set [10], 0.5 days; in [11], 1.1 days; in data set [13], 3.1 days; in data set [8], 0.5 days; in data set [9], 1.7 days.

As to `Nc1nc(N)c2cc(S(=O)(=O)Cc3ccc(Cl)cc3)ccc2n1`, the MSD is 5.9 days in data set [1]; 0.1 days in [10]; 0.3 days in data set [11]; 0.9 days in data set [13]; 0.1 days in [8]; 0.3 days in [9]. The result in data set [2], in [5] and in data set [6] was inactive. In addition, the MIC in [3], in data set [4] and in data set [7] was greater than 25 mg/L in each case.

Turning to `Nc1nc(N)c2cc(OCc3ccc(Cl)cc3)ccc2n1`, the MSD was determined as 13.3 days in data set [1]; 1.2 days in [10]; 3.6 days in [11]; 11.2 days in [13]; 1.7 days in [8]; 7.2 days in data set [9].

Consider `Nc1nc(N)c2cc(SC3CCCCC3)ccc2n1`, for which the result in [2], in data set [5] and in [6] was inactive. Besides, the MSD in data set [10] came to 0.7 days; in [11] it was 5.7 days; in data set [13], 12.9 days; in data set [8], 2.5 days; in data set [9], 9.1 days. In addition, the MIC in [3] was 10 mg/L (≈ 36.4 µM); in data set [4] it was less than 0.25 mg/L; in data set [7], 10 mg/L (≈ 36.4 µM). Moreover, the result in [12] was Active.

For the compound `CC(=O)O.Nc1nc(N)c2cc(NCc3ccc(Cl)c(Cl)c3)ccc2n1`, the outcome in data set [17] and in [12] was Active. The MSD in data set [10] is 2.5 days; in data set [11] it was 12.9 days; in data set [8], 7.1 days; in [9], 9.9 days.

For `Nc1nc(N)c2cc(SCCc3ccccc3)ccc2n1`, the MSD in data set [10] is 0.5 days; in data set [11], 0.9 days; in data set [13] it was 17.2 days; in [8], 0.5 days; in [9], 4.5 days.

Regarding `Nc1nc(N)c2c(Cl)c(S(=O)(=O)Cc3ccc(Cl)cc3)ccc2n1`, the MSD in [1], in data set [8] and in [9] was 0.1 days in each case. Further, the result in data set [2], in [5] and in [6] was inactive. The minimal inhibitory concentration (MIC) in data set [3] was 10 mg/L (≈ 26.1 µM); in data set [4] it was 5 mg/L (≈ 13 µM); in [7], less than 0.25 mg/L.

For the compound `Nc1nc(N)c2cc([S+]([O-])Cc3ccc(Cl)cc3)ccc2n1` (stereo unspecified), the MSD was found to be 5.9 days in data set [1]; 0.3 days in data set [10]; 0.7 days in data set [11]; 2.9 days in data set [13]; 0.5 days in [8]; 0.9 days in data set [9]. The result in data set [2], in data set [5] and in data set [6] was inactive. For the same compound, the MIC was greater than 25 mg/L in data set [3], 25 mg/L (≈ 75.1 µM) in data set [4] and greater than 25 mg/L in data set [7].
